From patent US8686150B2 (Sanofi, priority 2011, dated 2014)

Molecular target: T1, human full-length recombinant PKC βII (Homo sapiens, UniProt P05771)
T1 construct: Active human full-length recombinant PKC βII; purchased Invitrogen GmbH, Darmstadt, Germany
Assay: Determination of PKC βII inhibition (Caliper mobility-shift kinase assay, Fluorescein-RFARKGSLRQKNV peptide substrate)
Type: biochemical
Conditions: example compounds at a final concentration of 1.14 μM (±0.15 μM)
Protocol: Determination of PKC βII Inhibition
PKC βII Inhibition was Determined According to the Following Protocol:
Active human full-length recombinant PKC βII and the peptide substrate, Fluorescein-RFARKGSLRQKNV, were purchased from Invitrogen GmbH, Darmstadt, Germany. Adenosine-5′-triphosphate (ATP), bovine serum albumine (BSA), dimethylsulphoxide (DMSO), 4-(2-hydroxyethyl)piperazine-1-ethanesulfonic acid (Hepes), Triton X-100, 1,2-Dioleoyl-sn-glycerol (DAG), L-G-Phosphatidyl-L-serine (PS), calcium chloride (CaCl2), and Pluronic F-68 were purchased from Sigma-Aldrich, Munich, Germany. Magnesium chloride, 1 M sodium hydroxide solution, 1M hydrochloric acid solution and EDTA were obtained from Merck Biosciences, Darmstadt, Germany.
Test compounds were diluted to three times the test concentration in buffer 1 (30 mM Hepes-NaOH, pH 7.4, 0.01% Pluronic F-68 and 3% (v/v) DMSO). The PKC enzyme was diluted to a concentration of 30 ng/ml in buffer 2 (30 mM Hepes-NaOH, pH 7.4, 15 mM MgCl2, 150 μM CaCl2, 150 μg/ml PS, 60 μg/ml DAG, and 0.045% (w/v) Triton X-100). The peptide substrate and ATP were diluted to concentrations of 3 μM and 120 μM, respectively, in buffer 2. Two μl of the compound solution were mixed with 2 μl of the diluted enzyme in a 384-well small volume microtiter plate (Greiner, Bio-One, Frickenhausen, Germany), and the kinase reaction was initiated by addition of 2 μl of the solution containing peptide substrate and ATP. After 60 min incubation at 32° C., the reaction was stopped by addition of 20 μl of a solution containing 130 mM Hepes-NaOH, pH 7.4. 0.0195% (v/v) Brij-35, 6.5 mM EDTA. 0.13% chip coating reagent 3 (Caliper Lifescience Inc, Hopkinton, Mass.) and 6.5% (v/v) DMSO. Phosphorylation of the substrate peptide was then detected on a Caliper 3000 instrument essentially as described by Pommereau et al (J. Biomol. Screening 2004, 9(5), 409-416). Separation conditions were as follows: Pressure −0.8 psi, upstream voltage −3000 V, downstream voltage −800 V. Positive controls (buffer 1 instead of compound) and negative controls (buffer 1 instead of compound and buffer 2 instead of kinase solution) were run in parallel on each plate. Fractional turnover (R) was determined as the height of the peak of the phosphorylated peptide product divided by the sum of the unphosphorylated substrate and phosphorylated product peak heights. Percent-inhibition values for the test compounds were determined using the formula % Inhibition=100*(1−(Rcompound−Rnegative control)/(Rpositive control−Rnegative control).
In the following table % inhibition values observed with example compounds at a final concentration of 1.14 μM (±0.15 μM) are listed: […]

T1 sequence (P05771 1-673 isoform P05771-2): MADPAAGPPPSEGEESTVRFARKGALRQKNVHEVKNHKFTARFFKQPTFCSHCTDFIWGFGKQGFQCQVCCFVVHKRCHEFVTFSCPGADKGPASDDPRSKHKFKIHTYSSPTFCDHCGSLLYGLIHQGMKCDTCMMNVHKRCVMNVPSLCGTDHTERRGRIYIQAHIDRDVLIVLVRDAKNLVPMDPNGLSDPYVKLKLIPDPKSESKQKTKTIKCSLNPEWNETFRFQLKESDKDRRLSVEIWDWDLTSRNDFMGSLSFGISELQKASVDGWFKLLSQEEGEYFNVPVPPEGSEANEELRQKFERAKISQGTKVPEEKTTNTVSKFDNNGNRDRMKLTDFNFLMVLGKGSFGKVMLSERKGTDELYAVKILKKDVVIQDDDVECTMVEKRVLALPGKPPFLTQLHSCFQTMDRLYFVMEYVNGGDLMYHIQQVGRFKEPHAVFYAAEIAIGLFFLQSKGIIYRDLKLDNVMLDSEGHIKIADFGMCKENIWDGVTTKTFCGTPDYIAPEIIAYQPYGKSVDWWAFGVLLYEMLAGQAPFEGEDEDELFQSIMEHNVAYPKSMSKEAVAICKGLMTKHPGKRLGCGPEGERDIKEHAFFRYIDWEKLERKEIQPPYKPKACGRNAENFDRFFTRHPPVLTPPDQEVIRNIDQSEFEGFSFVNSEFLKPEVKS

Compound | inhibition at 1.14 µM | % Inhibition
CCc1n[nH]c2nc(-c3ccc(O)cc3)cc(C(=O)N[C@@H]3CCC(=O)NC3)c12 [Example 185, 3-Ethyl-6-(4-hydroxy-phenyl)-1H-pyrazolo[3,4-b]pyridine-4-carboxylic acid ((R)-6-oxo-piperidin-3-yl)-amide] | 34% | –
Cc1cc(O)ccc1-c1cc(C(=O)NCC2(N)CCCCCC2)c2c(C)n[nH]c2n1 [Example 148, 6-(4-Hydroxy-2-methyl-phenyl)-3-methyl-1H-pyrazolo[3,4-b]pyridine-4-carboxylic acid (1-amino-cycloheptylmethyl)-amide] | 85% | –
Cc1n[nH]c2nc(-c3ccc(O)cc3)cc(C(=O)N3C[C@@H](C)NC[C@@H]3c3ccccc3)c12 [Example 458, [6-(4-Hydroxy-phenyl)-3-methyl-1H-pyrazolo[3,4-b]pyridin-4-yl]-((2S,5R)-5-methyl-2-phenyl-piperazin-1-yl)-methanone] | 44% | –
Cc1n[nH]c2nc(-c3ccc(O)cc3F)cc(C(=O)N3C[C@@H](c4ccccc4)NC[C@@H]3C)c12 (single isomer, unassigned) [Example 460, [6-(2-Fluoro-4-hydroxy-phenyl)-3-methyl-1H-pyrazolo[3,4-b]pyridin-4-yl]-(trans-2-methyl-5-phenyl-piperazin-1-yl)-methanone] | – | 61%
Cc1n[nH]c2nc(-c3ccc(O)cc3)cc(C(=O)N3C[C@H](C)NC[C@@H]3C)c12 [Example 88, ((2S,5S)-2,5-Dimethyl-piperazin-1-yl)-[6-(4-hydroxy-phenyl)-3-methyl-1H-pyrazolo[3,4-b]pyridin-4-yl]-methanone] | 101% | –
Cc1n[nH]c2nc(-c3ccc(O)cc3F)cc(C(=O)N3CCNCC34CCCC4)c12 [Example 433, (6,9-Diaza-spiro[4.5]dec-6-yl)-[6-(2-fluoro-4-hydroxy-phenyl)-3-methyl-1H-pyrazolo[3,4-b]pyridin-4-yl]-methanone] | 98% | –
Cc1n[nH]c2nc(-c3ccc(O)cc3F)cc(C(=O)N3CCC(N)(C(F)(F)F)C3)c12 (centres unmarked) [Example 432, (3-Amino-3-trifluoromethyl-pyrrolidin-1-yl)-[6-(2-fluoro-4-hydroxy-phenyl)-3-methyl-1H-pyrazolo[3,4-b]pyridin-4-yl]-methanone] | 42% | –
CO[C@H]1CNC[C@@H]1NC(=O)c1cc(-c2ccc(O)cc2)nc2[nH]nc(C)c12 [Example 213, 6-(4-Hydroxy-phenyl)-3-methyl-1H-pyrazolo[3,4-b]pyridine-4-carboxylic acid ((3S,4S)-4-methoxy-pyrrolidin-3-yl)-amide] | 94% | –
Cc1n[nH]c2nc(-c3ccc(O)cc3)cc(C(=O)N3CCNCC3(C)C)c12 [Example 199, (2,2-Dimethyl-piperazin-1-yl)-[6-(4-hydroxy-phenyl)-3-methyl-1H-pyrazolo[3,4-b]pyridin-4-yl]-methanone] | 99% | –
CN[C@H]1CN(C(=O)c2cc(-c3ccc(O)cc3)nc3[nH]nc(C)c23)CC[C@H]1C (racemic) [Example 229, [6-(4-Hydroxy-phenyl)-3-methyl-1H-pyrazolo[3,4-b]pyridin-4-yl]-(cis-4-methyl-3-methylamino-piperidin-1-yl)-methanone] | 79% | –
Cc1n[nH]c2nc(-c3ccc(O)cc3)cc(C(=O)N[C@H]3CC[C@@H](N)CC3)c12 [Example 103, 6-(4-Hydroxy-phenyl)-3-methyl-1H-pyrazolo[3,4-b]pyridine-4-carboxylic acid (cis-4-amino-cyclohexyl)-amide] | 72% | –
Cc1n[nH]c2nc(-c3ccc(O)cc3)cc(C(=O)NCC(c3ccccc3)N3CCNCC3)c12 (centres unmarked) [Example 393, 6-(4-Hydroxy-phenyl)-3-methyl-1H-pyrazolo[3,4-b]pyridine-4-carboxylic acid (2-phenyl-2-piperazin-1-yl-ethyl)-amide] | 55% | –
Cc1n[nH]c2nc(-c3ccc(O)c(F)c3)cc(C(=O)N3CCN[C@H](C)C3)c12 [Example 337, [6-(3-Fluoro-4-hydroxy-phenyl)-3-methyl-1H-pyrazolo[3,4-b]pyridin-4-yl]-((R)-3-methyl-piperazin-1-yl)-methanone] | 93% | –
Cc1n[nH]c2nc(-c3ccc(O)cc3)cc(C(=O)NC3CC4CCC(C3)N4C)c12 (centres unmarked) [Example 219, 6-(4-Hydroxy-phenyl)-3-methyl-1H-pyrazolo[3,4-b]pyridine-4-carboxylic acid (8-methyl-8-aza-bicyclo[3.2.1]oct-3-yl)-amide] | 89% | –
COc1ccccc1C(=O)N1CCN(C(=O)c2cc(-c3ccc(O)cc3)nc3[nH]nc(C)c23)CC1 [Example 381, [6-(4-Hydroxy-phenyl)-3-methyl-1H-pyrazolo[3,4-b]pyridin-4-yl]-[4-(2-methoxy-benzoyl)-piperazin-1-yl]-methanone] | 37% | –
Cc1n[nH]c2nc(-c3ccc(O)cc3)cc(C(=O)N3CCNCC34CC4)c12 [Example 80, (4,7-Diaza-spiro[2.5]oct-4-yl)-[6-(4-hydroxy-phenyl)-3-methyl-1H-pyrazolo[3,4-b]pyridin-4-yl]-methanone] | 91% | –
Cc1n[nH]c2nc(-c3ccc(O)cc3F)cc(C(=O)N3C[C@@H](C)N(CC4CCOCC4)C[C@@H]3C)c12 [Example 454, [(2S,5R)-2,5-Dimethyl-4-(tetra-hydro-pyran-4-yl-methyl)-piperazin-1-yl]-[6-(2-fluoro-4-hydroxy-phenyl)-3-methyl-1H-pyrazolo[3,4-b]pyridin-4-yl]-methanone] | 81% | –
Cc1n[nH]c2nc(-c3ccc(O)cc3)cc(C(=O)N3CCNCC3c3ccccc3F)c12 (centres unmarked) [Example 95, [2-(2-Fluoro-phenyl)-piperazin-1-yl]-[6-(4-hydroxy-phenyl)-3-methyl-1H-pyrazolo[3,4-b]pyridin-4-yl]-methanone] | 99% | –
COc1cc(O)ccc1-c1cc(C(=O)N2CCNC[C@@H]2C)c2c(C)n[nH]c2n1 [Example 18, [6-(4-Hydroxy-2-methoxy-phenyl)-3-methyl-1H-pyrazolo[3,4-b]pyridin-4-yl]-((S)-2-methyl-piperazin-1-yl)-methanone] | 94% | –
Cc1n[nH]c2nc(-c3ccc(O)cc3F)cc(C(=O)N3CCNCC3(C)C)c12 [Example 56, (2,2-Dimethyl-piperazin-1-yl)-[6-(2-fluoro-4-hydroxy-phenyl)-3-methyl-1H-pyrazolo[3,4-b]pyridin-4-yl]-methanone] | 96% | –
Cc1n[nH]c2nc(-c3ccc(O)c(F)c3)cc(C(=O)N3CC(=O)NC(C(C)C)C3)c12 (centres unmarked) [Example 368, 4-[6-(3-Fluoro-4-hydroxy-phenyl)-3-methyl-1H-pyrazolo[3,4-b]pyridine-4-carbonyl]-6-isopropyl-piperazin-2-one] | 58% | –
Cc1cc(-c2cc(C(=O)N3CCNCC3)c3c(C)n[nH]c3n2)ccc1O [Example 8, [6-(4-Hydroxy-3-methyl-phenyl)-3-methyl-1H-pyrazolo[3,4-b]pyridin-4-yl]-piperazin-1-yl-methanone] | 32% | –
Cc1n[nH]c2nc(-c3ccc(O)cc3)cc(C(=O)N3CCCC4(CNCCO4)C3)c12 (centres unmarked) [Example 262, [6-(4-Hydroxy-phenyl)-3-methyl-1H-pyrazolo[3,4-b]pyridin-4-yl]-(1-oxa-4,8-diaza-spiro[5.5]undec-8-yl)-methanone] | 59% | –
CC[C@@H]1CN(C(=O)c2cc(-c3ccc(O)cc3F)nc3[nH]nc(C)c23)[C@@H](C)CN1 [Example 446, ((2S,5R)-5-Ethyl-2-methyl-piperazin-1-yl)-[6-(2-fluoro-4-hydroxy-phenyl)-3-methyl-1H-pyrazolo[3,4-b]pyridin-4-yl)-methanone] | 98% | –
Cc1n[nH]c2nc(-c3ccc(O)cc3F)cc(C(=O)N3CC(C)(C)NCC3(C)C)c12 [Example 63, [6-(2-Fluoro-4-hydroxy-phenyl)-3-methyl-1H-pyrazolo[3,4-b]pyridin-4-yl]-(2,2,5,5-tetramethyl-piperazin-1-yl)-methanone] | 100% | –
C[C@@H]1CN(C(=O)c2cc(-c3ccc(O)cc3)nc3[nH]nc(C(F)(F)F)c23)CCN1 [Example 401, [6-(4-Hydroxy-phenyl)-3-trifluoromethyl-1H-pyrazolo[3,4-b]pyridin-4-yl]-((R)-3-methyl-piperazin-1-yl)-methanone] | 71% | –
